# Entries after “also recorded” stand apart in the source; their conditions may differ.
# Legend:
# MuSCs [1] = assay: VisionBlue metabolic viability dose-response assay; assay type: cell-based, mouse; conditions: dose-response 1-200 ng/ml PGE2
# Protocol: (§1) Proliferation assays: To assay proliferation, we used three different assays (hemocytometer, VisionBlue, and EdU). For each, we seeded MuSCs on flat hydrogels (hemocytometer and VisionBlue) or collagen-coated plates (EdU assay) at a density of 500 cells per cm^2 surface area. For hemocytometer cell number count, we collected cells at indicated timepoints by incubation with 0.5% trypsin in PBS for 5 min at 37° C. and quantified them using a hemocytometer at least 3 times. Additionally, we used the VisionBlue Quick Cell Viability Fluorometric Assay Kit (BioVision, catalog #K303) as a readout for cell growth in culture. Briefly, we incubated MuSCs with 10% VisionBlue in culture medium for 3 h, and measured fluorescence intensity on a fluorescence plate reader (Infinite M1000 PRO, Tecan) at Ex=530-570 nm, Em=590-620 nm. […] We quantified EdU positive cells using the MetaMorph Image Analysis software (Molecular Devices). Data analyses were blinded, where researchers performing cell scoring were unaware of the treatment condition given to sample groups analyzed.
# (§2) To assay proliferation, we used three different assays (hemocytometer, VisionBlue, and EdU). […] For hemocytometer cell number count, we collected cells at indicated timepoints by incubation with 0.5% trypsin in PBS for 5 min at 37° C. and quantified them using a hemocytometer at least 3 times. […]
# MuSCs [2] = assay: EdU incorporation proliferation assay; assay type: cell-based, mouse; conditions: PGE2 10 ng/ml for 24 h, EdU 1 hr
# Protocol: as §1, §2
# [3] = test system: muscle stem cells (MuSCs); assay: MuSC proliferation in culture, cell number count (hemocytometer); assay type: cell-based, mouse
# Protocol: Muscle stem cell culture, treatment and lentiviral infection: Following isolation, we resuspended MuSCs in myogenic cell culture medium containing DMEM/F10 (50:50), 15% FBS, 2.5 ng ml^−1 fibroblast growth factor-2 (FGF-2 also known as bFGF) and 1% penicillin-streptomycin. We seeded MuSC suspensions at a density of 500 cells per cm^2 surface area. We maintained cell cultures at 37° C. in 5% CO2 and changed medium daily. For PGE2, 15-PGDH inhibitor and EP4 receptor antagonist treatment studies, we added 1-200 ng/ml Prostaglandin E2 (Cayman Chemical) (unless specified in the figure legends, 10 ng/ml was the standard concentration used), and/or 1 μM EP4 antagonist (ONO-AE3-208, Cayman Chemical), or 1 μM 15-PGDH inhibitor (SW033291, Cayman Chemical) to the MuSCs cultured on collagen coated dishes for the first 24 h. The cells were then trypsinized and cells reseeded onto hydrogels for an additional 6 days of culture. All treatments were compared to their solvent (DMSO) vehicle control. For stripped serum assays, we resuspended isolated MuSCs in medium containing DMEM/F10 (50:50), 15% charcoal stripped FBS (Gibco, cat #12676011), 2.5 ng ml^−1 bFGF and 1% penicillin-streptomycin. […]
# as §1, with “For each, we seeded MuSCs on flat hydrogels (hemocytometer and VisionBlue) or collagen-coated plates (EdU assay) at a density of 500 cells per cm^2 surface area.” left out, “analyzed. […]” for “analyzed.”
# [4] = PGE2 20 μg (or 4 mg/kg); cited from earlier work
# TA muscles = assay: In vivo muscle force after downhill treadmill exercise, aged mice, TA; set-up: species or system mouse; conditions: aged (18-22 mo) mice, 10 μg PGE2 after each run in week 1, force at week 5
# Protocol: FIGS. 5Q and 5R show twitch force and tetanic force data, respectively, from a separate experiment in which mice were treated with PGE2 or vehicle only. Importantly, we observed an increase in isometric force in aged (18-22 mo) mice injected with PGE2 and subjected to downhill treadmill exercise. Briefly, aged mice ran daily (at 20 degrees downhill and 14 meter/min maximum speed for 10 min) for 5 days and rested on days 6 and 7. This eccentric exercise regime leads to MuSC expansion due to a cycle of muscle degeneration and regeneration. […] During week 2, mice were subjected to 5 days treadmill run only.
structure (smiles),measurement,setting,value
"CCCCC[C@H](O)/C=C/[C@H]1[C@H](O)CC(=O)[C@@H]1C/C=C\CCCC(=O)O [PGE2, prostaglandin E2]",lowest drug concentration that promotes a robust MuSC proliferation response,MuSCs [1],10 ng/mL
same,cell division assayed by EdU incorporation,MuSCs [2],increased cell division; also recorded: increase in cell division
same,MuSC proliferation in medium with charcoal stripped serum,"[3]; PGE2 10 ng/ml added to stripped serum medium, 7 days on hydrogels",divided upon addition of PGE2; also recorded: rescued this block in proliferation
same,increase in the number of MuSCs relative to controls,"[3]; PGE2 10 ng/ml, acute 1-day exposure, counted one week later, young MuSCs on hydrogel",6 fold
same,tolerability of proposed maximum dose in rodents,[4],without deleterious effects
same,force (twitch and tetanic) of TA muscles,TA muscles,significant increase in force

# — patent publication US11738031B2, “Compositions and methods for preventing or treating muscle conditions” (The Board of Trustees of the Leland Stanford Junior …, priority 2017, dated 2023)
